Values quoted from earlier work as cited in patent US20250311762A1, “FORMULATION AND METHOD FOR AN EXERCISE SUPPORTING NUTRITIONAL SUPPLEMENT” (BullFit, LLC., priority 2024, published 2025).

How the values were obtained:
[1] = test system: anaerobic strength performance; settings: athletes supplementing with Betaine
cognitive function = settings: 2 g per day for 5 days during a demanding military combat training course

| SMILES | squat, bench press, and other activities [1] | cognitive function relative to placebo (cognitive function) |
| --- | --- | --- |
| C[N+](C)(C)CC(=O)[O-] [Betaine, trimethylglycine] | increased their squat, bench press, and other activities | – |
| N[C@@H](Cc1ccc(O)cc1)C(=O)O [L-tyrosine, L-Tyrosine] | – | improved various aspects of cognitive function relative to placebo |
